Results on twelve compounds are retold here after the Kinase Knowledgebase extract (Sharma et al. 2016).

The target of test [1] is EGFR (human) (UniProt P00533). The note with it: skbr3.
The target in test [2] is EGFR (human) (UniProt P00533). The note with it: a2780s.
The target of test [3] is EGFR (human) (UniProt P00533). The note with it: sw 620.
A further test addresses EGFR (UniProt P00533).
Test [4] has as its target EGFR (human) (UniProt P00533). The note with it: a2780ddp.
Test [5] has as its target EGFR (human) (UniProt P00533). The conditions noted are these: a431.
Test [6] deals with EGFR (human) (UniProt P00533). The conditions noted are these: mda435.
Test [7] concerns the target EGFR (human) (UniProt P00533). The conditions noted are these: mcf-7.
For test [8], the target named is EGFR (human) (UniProt P00533). The note with it: lox.
Test [9] deals with EGFR (human) (UniProt P00533). The conditions noted are these: her2/3t3.
The target of test [10] is EGFR (human) (UniProt P00533). The note with it: 3t3.

SMILES strings stand for the structures. Converted amounts (≈) assume the structure as drawn. “And” between values parts separate entries of the source, which are not always exact repeats. Equal values may be shown once.

EGFR (human), sequence (P00533 whole entry, looked up): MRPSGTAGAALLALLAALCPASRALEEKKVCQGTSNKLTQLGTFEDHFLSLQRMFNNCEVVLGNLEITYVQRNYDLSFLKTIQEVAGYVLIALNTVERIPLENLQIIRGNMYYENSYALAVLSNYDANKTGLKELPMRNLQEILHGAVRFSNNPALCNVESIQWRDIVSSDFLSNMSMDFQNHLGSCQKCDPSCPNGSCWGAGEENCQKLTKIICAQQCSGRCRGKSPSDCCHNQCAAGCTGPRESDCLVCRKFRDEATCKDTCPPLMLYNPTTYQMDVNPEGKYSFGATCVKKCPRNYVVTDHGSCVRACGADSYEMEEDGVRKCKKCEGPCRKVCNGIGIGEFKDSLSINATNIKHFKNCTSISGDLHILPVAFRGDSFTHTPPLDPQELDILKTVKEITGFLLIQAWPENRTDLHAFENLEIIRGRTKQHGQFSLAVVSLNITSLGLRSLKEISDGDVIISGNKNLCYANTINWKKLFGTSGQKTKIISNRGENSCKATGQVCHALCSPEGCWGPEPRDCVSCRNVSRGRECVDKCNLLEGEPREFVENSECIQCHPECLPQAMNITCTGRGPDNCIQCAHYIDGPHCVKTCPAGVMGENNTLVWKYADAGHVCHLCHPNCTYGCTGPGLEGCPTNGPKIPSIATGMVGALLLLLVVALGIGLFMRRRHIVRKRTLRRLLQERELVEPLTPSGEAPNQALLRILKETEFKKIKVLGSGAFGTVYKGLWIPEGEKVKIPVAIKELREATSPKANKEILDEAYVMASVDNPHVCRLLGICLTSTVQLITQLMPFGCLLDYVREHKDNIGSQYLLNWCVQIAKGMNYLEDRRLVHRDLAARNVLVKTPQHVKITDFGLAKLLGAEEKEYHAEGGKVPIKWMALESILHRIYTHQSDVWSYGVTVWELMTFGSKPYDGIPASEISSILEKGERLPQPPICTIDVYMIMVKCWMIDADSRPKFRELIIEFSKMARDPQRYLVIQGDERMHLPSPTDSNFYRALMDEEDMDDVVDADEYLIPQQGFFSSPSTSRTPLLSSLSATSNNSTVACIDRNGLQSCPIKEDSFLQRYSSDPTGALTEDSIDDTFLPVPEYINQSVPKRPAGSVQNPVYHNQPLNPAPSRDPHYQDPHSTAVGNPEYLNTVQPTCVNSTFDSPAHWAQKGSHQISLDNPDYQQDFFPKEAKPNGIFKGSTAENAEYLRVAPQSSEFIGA
EGFR, sequence (P00533 whole entry, looked up): as above

Regarding `CN(C)C/C=C/C(=O)Nc1cnc2ncc(C#N)c(Nc3cccc(Br)c3)c2c1`, the IC50 (commonly the concentration at which inhibition is half-maximal) was 4.83 µg/mL (≈ 10.7 µM) at EGFR (human) [1]; 1.77 µg/mL (≈ 3.92 µM) at EGFR (human) [2]; above 5 µg/mL at EGFR (human) [3]; above 0.8 µM against EGFR; 4 µg/mL (≈ 8.87 µM) against EGFR (human) [4]; 2.76 µg/mL (≈ 6.12 µM) against EGFR (human) [5]. On EGFR (human) [6], this compound had a half-maximal inhibitory concentration (IC50) above 5 µg/mL.

As for `N#Cc1cnc2cnc(N)cc2c1Nc1cccc(Br)c1`, the IC50 against EGFR (human) [1] was 4.1 µg/mL (≈ 12.1 µM); at EGFR (human) [2], 3.5 µg/mL (≈ 10.3 µM); on EGFR (human) [3], above 5 µg/mL; on EGFR (human) [4] it was 3.1 µg/mL (≈ 9.11 µM); at EGFR (human) [5], 0.4 µg/mL (≈ 1.18 µM); against EGFR (human) [6] it was above 5 µg/mL.

For the compound `CC#CC(=O)Nc1cnc2ncc(C#N)c(Nc3ccc(F)c(Cl)c3)c2c1`, on EGFR, the IC50 was above 0.1 µM.

Consider `CC#CC(=O)Nc1cc2c(Nc3cccc(Br)c3)c(C#N)cnc2cn1`, for which the IC50 was 0.12 µg/mL (≈ 0.295 µM) at EGFR (human) [1]; 0.17 µg/mL (≈ 0.418 µM) against EGFR (human) [3]; 0.98 µM and 0.4 µM on EGFR (human) [7]; 0.13 µg/mL (≈ 0.32 µM) at EGFR (human) [4]; 0.23 µg/mL (≈ 0.566 µM) at EGFR (human) [5]; 0.07 µg/mL (≈ 0.172 µM) on EGFR (human) [8]. In addition, the IC50 at EGFR (human) [6] stood at 0.88 µg/mL (≈ 2.17 µM).

As for `N#Cc1cnc2cnc(NCCN3CCOCC3)cc2c1Nc1cccc(Br)c1`, the IC50 amounted to 0.5 µg/mL (≈ 1.1 µM) at EGFR (human) [2]; 41 µg/mL (≈ 90.4 µM) at EGFR (human) [3]; 0.5 µg/mL (≈ 1.1 µM) against EGFR (human) [5]; 57 µg/mL (≈ 126 µM) at EGFR (human) [8]; 49 µg/mL (≈ 108 µM) against EGFR (human) [6].

As for `CN(C)c1cc[n+](-c2cc3c(Nc4cccc(Br)c4)c(C#N)cnc3cn2)cc1`, the IC50 was 41 µg/mL on EGFR (human) [1]; 31 µg/mL against EGFR (human) [2]; 42 µg/mL against EGFR (human) [3]; 52 µg/mL on EGFR (human) [4]; 59 µg/mL against EGFR (human) [5]; 56 µg/mL against EGFR (human) [8]. On EGFR (human) [6], this compound came in with a concentration for half-maximal inhibition (IC50) of 47 µg/mL.

Regarding `COc1ccc(CNc2cc3c(Nc4cccc(Br)c4)c(C#N)cnc3cn2)cc1`, the IC50 on EGFR (human) [1] stood at 2.9 µg/mL (≈ 6.3 µM); on EGFR (human) [2], 1 µg/mL (≈ 2.17 µM); against EGFR (human) [3], 4.1 µg/mL (≈ 8.91 µM); on EGFR (human) [4] it was 1.8 µg/mL (≈ 3.91 µM); on EGFR (human) [5], 0.4 µg/mL (≈ 0.869 µM); at EGFR (human) [6], 2.4 µg/mL (≈ 5.21 µM).

For the compound `CN(C)CCOc1cc2c(Nc3ccc(F)c(Cl)c3)c(C#N)cnc2cn1`, the IC50 against EGFR (human) [1] was 4.63 µg/mL (≈ 12 µM); on EGFR (human) [3] it was above 5 µg/mL; on EGFR (human) [9], above 5 µg/mL; against EGFR (human) [10] it was 4.48 µg/mL (≈ 11.6 µM); on EGFR (human) [5], 2.23 µg/mL (≈ 5.77 µM); against EGFR (human) [6], above 5 µg/mL.

In the case of `CN(C)C/C=C/C(=O)Nc1cc2c(Nc3cccc(Br)c3)c(C#N)cnc2cn1`, the IC50 at EGFR (human) [1] is 0.0357 µg/mL (≈ 0.079 µM); on EGFR (human) [3], 0.356 µg/mL (≈ 0.789 µM); against EGFR (human) [9] it was 0.106 µg/mL and 0.0436 µg/mL; on EGFR (human) [10] it was 0.272 µg/mL and 0.373 µg/mL; against EGFR (human) [5], 0.088 µg/mL (≈ 0.195 µM); against EGFR (human) [6], 0.464 µg/mL (≈ 1.03 µM).

Consider `C[Si](C)(C)C#Cc1cc2c(Nc3cccc(Br)c3)c(C#N)cnc2cn1`, for which the IC50 against EGFR (human) [1] was 3.59 µg/mL (≈ 8.52 µM); on EGFR (human) [2] it was 2.34 µg/mL (≈ 5.56 µM); against EGFR (human) [3], 4.72 µg/mL (≈ 11.2 µM); against EGFR (human) [4], 2.97 µg/mL (≈ 7.05 µM); at EGFR (human) [5], 3.06 µg/mL (≈ 7.25 µM); on EGFR (human) [6], 4.2 µg/mL (≈ 9.97 µM).

Take `CNc1cc2c(Nc3cccc(Br)c3)c(C#N)cnc2cn1`: the IC50 is 1.88 µg/mL (≈ 5.3 µM) against EGFR (human) [1]; 4.62 µg/mL (≈ 13 µM) against EGFR (human) [3]; 10.9 µM and 3.87 µM against EGFR (human) [7]; 0.31 µg/mL and 0.209 µg/mL against EGFR (human) [5]; 3.6 µg/mL (≈ 10.2 µM) at EGFR (human) [8]; 0.98 µg/mL (≈ 2.77 µM) against EGFR (human) [6]. For the same compound, the IC100 against EGFR (human) [5] turned out to be 0.59 µM.

Regarding `N#Cc1cnc2cnc(F)cc2c1Nc1cccc(Br)c1`, the IC50 at EGFR (human) [1] is above 5 µg/mL; against EGFR (human) [2] it was 3.33 µg/mL (≈ 9.7 µM); on EGFR (human) [3], above 5 µg/mL; on EGFR (human) [4], above 5 µg/mL; at EGFR (human) [5], 3.92 µg/mL (≈ 11.4 µM); at EGFR (human) [6] it was above 5 µg/mL.
